Test results as given in patent US20090149485A1, “PYRIMIDINEDIONES AS TYROSINE KINASE INHIBITORS” (Jubilant Biosys Limited, priority 2006, published 2009).

Tests used:
GSK3-alpha = target: T1, GSK3-alpha (Homo sapiens, UniProt P49840); assay: GSK3-alpha Kinase-Glo Plus luminescent kinase assay; type: biochemical; settings: 10 μM compound, n=3, read-out: % Inhibition at 10 μM α
T1 construct: purchased Upstate 14-492
Experimental: (§1) GSK3 assays were performed using Kinase-Glo® Plus Luminescent Kinase Assay Kit (Promega V3772/3/4 P), in assay buffer (50 mM HEPES, 30 mM Magnesium acetate, 1 mM EDTA and 1 mM EGTA, pH 7.5) in white 96-well-Optiplates (Perkin Elmer). In a typical assay reaction mix (40 μl final volume) contained 10 μl of test compound (dissolved in DMSO), 10 μl of GSM peptide substrate (Upstate Cat#12-533) 20M-GSK3-beta; 25 μM-GSK3-alpha were added followed by 10 μl of enzyme 40 ng/well-GSK3-beta (Upstate Cat#14-306); 30 ng/well-GSK3-alpha (Upstate Cat#14-492) and 1 μM ATP. After incubation at room temperature for 30 minutes, 40 μl of Kinase-Glo reagent was added to stop the reaction, followed by another 5 minutes incubation at room temperature. Luminescence was measured using Wallac 1450 MicroBeta® TriLux (PerkinElmer) Liquid Scintillation and Luminescence Counter. The activity is expressed as a difference of the consumed ATP and total ATP.

GSK3-beta = target: T2, GSK3-beta (Homo sapiens, UniProt P49841); assay: GSK3-beta Kinase-Glo Plus luminescent kinase assay; type: biochemical; settings: 10 μM compound; for inhibition at 10 µM: n=4, read-out: % Inhibition at 10 μM β
T2 construct: purchased Upstate 14-306
T2 sequence (P49841 whole entry): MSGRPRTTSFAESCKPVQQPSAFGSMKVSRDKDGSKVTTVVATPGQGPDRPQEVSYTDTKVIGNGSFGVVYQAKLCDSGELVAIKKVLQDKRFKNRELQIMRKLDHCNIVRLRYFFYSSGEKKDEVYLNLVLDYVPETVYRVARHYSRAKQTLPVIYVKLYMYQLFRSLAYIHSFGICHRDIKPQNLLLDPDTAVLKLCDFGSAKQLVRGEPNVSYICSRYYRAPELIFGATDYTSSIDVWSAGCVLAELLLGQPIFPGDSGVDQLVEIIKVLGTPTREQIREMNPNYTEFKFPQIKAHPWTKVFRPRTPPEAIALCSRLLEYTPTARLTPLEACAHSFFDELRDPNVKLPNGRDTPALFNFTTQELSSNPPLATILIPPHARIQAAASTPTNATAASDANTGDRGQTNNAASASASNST
Experimental: To analyze the activity of the compounds, the said compounds were subjected to biochemical assays. The biochemical assays as performed by the undermentioned methods are used to evaluate the potency of the compounds. This potency data is the indication of the bioactivity of the organic compounds which are described as inhibitors of GSK3beta.
as §1

T1 sequence (P49840 whole entry): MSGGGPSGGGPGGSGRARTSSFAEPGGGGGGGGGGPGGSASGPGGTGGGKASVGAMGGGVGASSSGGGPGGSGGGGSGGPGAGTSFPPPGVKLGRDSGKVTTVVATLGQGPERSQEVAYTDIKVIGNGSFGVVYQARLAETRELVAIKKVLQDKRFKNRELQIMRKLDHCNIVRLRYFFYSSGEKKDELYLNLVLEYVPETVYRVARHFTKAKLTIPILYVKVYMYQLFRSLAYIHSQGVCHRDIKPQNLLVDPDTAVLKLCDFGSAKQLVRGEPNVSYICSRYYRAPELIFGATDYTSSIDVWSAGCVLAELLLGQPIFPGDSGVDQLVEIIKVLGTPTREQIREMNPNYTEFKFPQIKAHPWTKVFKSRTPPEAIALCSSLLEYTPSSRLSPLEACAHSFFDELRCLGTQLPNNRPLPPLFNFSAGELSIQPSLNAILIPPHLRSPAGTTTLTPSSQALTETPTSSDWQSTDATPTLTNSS

inhibition at 10 µM (GSK3-alpha) [%]	inhibition at 10 µM (GSK3-beta) [%]	% Inhibition at 10 μM β (GSK3-beta; n=4, 10 µM) [%]	SMILES
9	13	–	CCOC(=O)Cn1cc(-c2ccco2)c(=O)[nH]c1=O [Compound 1, (2,4-Dioxo-5-furan-2-yl-3,4-dihydro-2H-pyrimidin-1-yl)-acetic Acid Ethyl Ester]
68	77	–	CCOC(=O)Cn1cc(-c2cccs2)c(=O)[nH]c1=O [Compound 2, (2,4-Dioxo-5-thiophen-2-yl-3,4-dihydro-2H-pyrimidin-1-yl)-acetic acid Ethyl Ester]
11	66	68	O=c1[nH]c(=O)n(Cc2ccc(F)cc2)cc1-c1cccs1 [Compound 3, 1-(4-Fluoro-benzyl)-5-thiophen-2-yl-1H-pyrimidine-2,4-dione]
72	56	–	O=c1[nH]c(=O)n(Cc2ccc(F)cc2)cc1-c1ccco1 [Compound 4, 1-(4-Fluoro-benzyl)-5-furan-2-yl-1H-pyrimidine-2,4-dione]
17	46	–	N#Cc1ccc(Cn2cc(-c3ccco3)c(=O)[nH]c2=O)cc1 [Compound 5, 4-(2,4-Dioxo-5-furan-2-yl-3,4-dihydro-2H-pyrimidin-1-ylmethyl)-benzonitrile]
10	45	–	O=c1[nH]c(=O)n(Cc2ccccc2)cc1-c1cccs1 [Compound 6, 1-Benzyl-5-thiophen-2-yl-1H-pyrimidine-2,4-dione]
16	45	–	N#Cc1cccc(Cn2cc(-c3cccs3)c(=O)[nH]c2=O)c1 [Compound 7, 3-(2,4-dioxo-5-thiophen-2-yl-3,4-dihydro-2H-pyrimidin-1-ylmethyl)-benzonitrile]
54	78	–	N#Cc1cccc(Cn2c(=O)[nH]cc(-c3cccs3)c2=O)c1 [Compound 8, 3-(2,6-Dioxo-5-thiophen-2-yl-3,6-dihydro-2H-pyrimidin-1-ylmethyl)-benzonitrile]
22	64	–	N#Cc1cccc(Cn2c(=O)[nH]cc(-c3ccco3)c2=O)c1 [Compound 9, 3-(5-furan-2-yl-2,6-dioxo-3,6-dihydro-2H-pyrimidin-1-ylmethyl)-benzonitrile]
6	13	–	O=c1[nH]cc(-c2cccs2)c(=O)n1Cc1ccc(F)cc1 [Compound 10, 3-(4-fluoro-benzyl)-5-thiophen-2-yl-1H-pyrimidine-2,4-dione]
16	46	–	O=c1[nH]cc(-c2ccco2)c(=O)n1Cc1ccc(F)cc1 [Compound 11, 3-(4-fluoro-benzyl)-5-furan-2-yl-1H-pyrimidine-2,4-dione]
55	75	–	O=c1[nH]cc(-c2ccco2)c(=O)n1Cc1ccc([N+](=O)[O-])cc1 [Compound 12, 3-(4-nitro-benzyl)-5-furan-2-yl-1H-pyrimidine-2,4-dione]
13	25	–	CCOC(=O)Cn1c(=O)[nH]cc(-c2ccco2)c1=O [Compound 13, (2,6-dioxo-5-furan-2-yl-3,6-dihydro-2H-pyrimidin-1-yl)-acetic Acid Ethyl Ester]
42	63	–	O=c1[nH]cc(-c2ccco2)c(=O)n1Cc1ccccc1 [Compound 14, 3-benzyl-5-furan-2-yl-1H-pyrimidine-2,4-dione]
14	21	–	N#Cc1ccc(Cn2c(=O)[nH]cc(-c3ccco3)c2=O)cc1 [Compound 15, 4-(2,6-dioxo-5-furan-2-yl-3,6-dihydro-2H-pyrimidin-1-ylmethyl)-benzonitrile]
8	58	–	O=c1[nH]cc(-c2cccs2)c(=O)n1Cc1ccc([N+](=O)[O-])cc1 [Compound 17, 3-(4-nitro-benzyl)-5-thiophen-2-yl-1H-pyrimidine-2,4-dione]
10	31	–	N#Cc1cccc(Cn2cc(-c3ccco3)c(=O)[nH]c2=O)c1 [Compound 18, 3-(5-furan-2-yl-2,4-dioxo-3,4-dihydro-2H-pyrimidin-1-ylmethyl)-benzonitrile]
15	23	–	N#Cc1ccc(Cn2cc(-c3cccs3)c(=O)[nH]c2=O)cc1 [Compound 19, 4-(2,4-dioxo-5-thiophen-2-yl-3,4-dihydro-2H-pyrimidin-1-ylmethyl)-benzonitrile]
11	53	–	O=c1[nH]cc(-c2ccco2)c(=O)n1Cc1cc(F)cc(F)c1 [Compound 20, 3-(3,5-difluoro-benzyl)-5-furan-2-yl-1H-pyrimidine-2,4-dione]
